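Step 1: Grow cells in 96-well plates. Step 2: Expose to compound for 48 hours at 5 concentrations. Step 3: Interpolate endpoints linearly; if unreached, use highest concentration. GI50 is the concentration that inhibits growth by half.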 Calls of active or inactive are those of the source. No stated cut-off is given here; in the data, active = GI50 up to about 1.1 µM and inactive = higher.

Among the test systems are SW-620; NCI-H460; CCRF-CEM; SK-MEL-2; OVCAR-5; UACC-62; MOLT-4; HOP-62; SNB-75; K562; U-251; SK-MEL-5; EKVX; SN12C; RXF 393; OVCAR-4; NCI-H522; SK-MEL-28; HCC 2998; NCI-H226.
What all share (test): inhibition of tumour cell growth, NCI panel, 48 h

Take `O=C(NN1C(=O)C(Cl)C1c1cccc([N+](=O)[O-])c1)c1ccccc1O` (stereo not drawn): the GI50 in the assay with SW-620 was > 100 µM (inactive); with NCI-H460 it was > 100 µM (inactive); with CCRF-CEM, 35.6 µM (inactive); in the assay on SK-MEL-2, > 100 µM (inactive); with OVCAR-5, > 100 µM (inactive); with UACC-62 it was > 100 µM (inactive). The GI50 in the assay on MOLT-4, in the assay on HOP-62, with SNB-75, in the assay with K562, in the assay with U-251 and in the assay on SK-MEL-5 was > 100 µM (inactive) each time. Further, the GI50 with EKVX was > 100 µM (inactive); in the assay on SN12C, > 100 µM (inactive); with RXF 393, > 100 µM (inactive); in the assay with OVCAR-4 it was > 100 µM (inactive); in the assay with NCI-H522 it was 28.3 µM (inactive); in the assay on SK-MEL-28, > 100 µM (inactive).

For `CC(C)C1CN(C(=O)OCc2ccccc2)C2N1C(=O)C2(C)OCc1ccccc1` (stereo not drawn), the GI50 was 40.9 µM (inactive) in the assay on SW-620; 21.6 µM (inactive) in the assay with NCI-H460; 28.1 µM (inactive) in the assay with CCRF-CEM; 28.2 µM (inactive) in the assay on SK-MEL-2; 25.1 µM (inactive) in the assay on UACC-62; 24.4 µM (inactive) in the assay on MOLT-4. Further, the GI50 with HCC 2998 is 36.4 µM (inactive); in the assay with HOP-62 it was 94.4 µM (inactive); in the assay on NCI-H226, 22 µM (inactive); with SNB-75, 16.7 µM (inactive); in the assay on K562, 34.8 µM (inactive); in the assay on U-251 it was 41.7 µM (inactive). Also, the GI50 with SK-MEL-5 is 16 µM (inactive); in the assay with EKVX it was 34 µM (inactive); in the assay on SN12C, 48.6 µM (inactive); in the assay with RXF 393 it was 21.4 µM (inactive); in the assay with OVCAR-4, 41.9 µM (inactive); with SK-MEL-28, > 100 µM (inactive).

For the compound `COc1cc2c(c(OC)c1OC)-c1[nH]ncc1CC2`, the GI50 with SW-620, in the assay with NCI-H460, with CCRF-CEM, in the assay with SK-MEL-2, in the assay on OVCAR-5 and with UACC-62 was > 100 µM (inactive) in each case. Also, the GI50 in the assay on MOLT-4, with HCC 2998, in the assay with HOP-62, in the assay on NCI-H226, with SNB-75 and with K562 was > 100 µM (inactive) in each case. The GI50 in the assay with U-251, in the assay on SK-MEL-5, with EKVX, in the assay with SN12C and with SK-MEL-28 was > 100 µM (inactive) throughout.

Consider `COc1ccccc1N1C(Cl)C(=O)C1c1c[nH]c2ccccc12` (stereo not drawn), for which the GI50 in the assay with SW-620 is > 100 µM (inactive); with NCI-H460, > 100 µM (inactive); with CCRF-CEM, > 100 µM (inactive); in the assay on SK-MEL-2, > 100 µM (inactive); with OVCAR-5, 13.2 µM (inactive); in the assay with UACC-62, > 100 µM (inactive). In addition, the GI50 in the assay on MOLT-4, in the assay on HOP-62, in the assay with SNB-75, with K562, with U-251 and in the assay with SK-MEL-5 was > 100 µM (inactive) in each case. The GI50 in the assay on EKVX, in the assay with SN12C, with RXF 393, in the assay on OVCAR-4, in the assay with NCI-H522 and with SK-MEL-28 was > 100 µM (inactive) throughout.

In the case of `O=C(CCC(=O)Nc1ccc(Cl)c(Cl)c1)CC(=O)c1ccc(Br)cc1`, the GI50 in the assay on SW-620 is > 100 µM (inactive); in the assay on CCRF-CEM, > 100 µM (inactive); with SK-MEL-2 it was > 100 µM (inactive); in the assay on OVCAR-5, > 100 µM (inactive); in the assay on UACC-62 it was 36.2 µM (inactive); in the assay on MOLT-4, > 100 µM (inactive). Moreover, the GI50 in the assay with NCI-H226 was > 100 µM (inactive); with SNB-75, 61.7 µM (inactive); in the assay with K562, 47.8 µM (inactive); with U-251 it was > 100 µM (inactive); in the assay on SK-MEL-5, > 100 µM (inactive); with EKVX it was > 100 µM (inactive). The GI50 with SN12C, in the assay on RXF 393, in the assay with OVCAR-4, in the assay on NCI-H522 and with SK-MEL-28 was > 100 µM (inactive) throughout.

In the case of `NC1C2C=CC(C2)C1C(=O)O` (stereo not drawn), the GI50 in the assay on SW-620, in the assay on CCRF-CEM, with SK-MEL-2, in the assay with OVCAR-5, with UACC-62 and in the assay on MOLT-4 was > 100 µM (inactive) in each case. Also, the GI50 with HOP-62, with NCI-H226, in the assay on SNB-75, with K562, in the assay with U-251 and in the assay on SK-MEL-5 was > 100 µM (inactive) throughout. Further, the GI50 in the assay with EKVX, in the assay with SN12C, with RXF 393, in the assay with OVCAR-4, with NCI-H522 and in the assay with SK-MEL-28 was > 100 µM (inactive) each time.

As to `O=C1C=CC2(O[C@@H](Cc3ccccc3)[C@H](Cc3ccccc3)O2)C(SC(=O)c2ccccc2)C1` (stereo partly drawn), the GI50 was 0.231 µM (active) in the assay with SW-620; 2.59 µM (inactive) with NCI-H460; 0.208 µM (active) in the assay with CCRF-CEM; 1.66 µM (inactive) in the assay with SK-MEL-2; 0.439 µM (active) in the assay on OVCAR-5; 2.24 µM (inactive) in the assay on UACC-62. Moreover, the GI50 in the assay with MOLT-4 is 0.19 µM (active); with HOP-62, 1.11 µM (active); in the assay on NCI-H226, 1.52 µM (inactive); in the assay with SNB-75, 1.91 µM (inactive); in the assay on K562, 1.64 µM (inactive); with U-251, 1.3 µM (inactive). Besides, the GI50 is 1.66 µM (inactive) in the assay with SK-MEL-5; 1.62 µM (inactive) in the assay on SN12C; 0.0849 µM (active) with RXF 393; 1.47 µM (inactive) in the assay with OVCAR-4; 1.81 µM (inactive) in the assay on SK-MEL-28.

Turning to `CC(=O)NC1CC(C(C)(C)NC(C)=O)CC=C1C` (stereo not drawn), the GI50 in the assay on SW-620, with NCI-H460, in the assay on CCRF-CEM, in the assay with OVCAR-5, in the assay on UACC-62 and in the assay with MOLT-4 was > 100 µM (inactive) throughout. Moreover, the GI50 with HCC 2998, in the assay on HOP-62, in the assay on SNB-75, in the assay with K562, in the assay with U-251 and in the assay with SK-MEL-5 was > 100 µM (inactive) throughout. In addition, the GI50 in the assay on EKVX, in the assay on SN12C, with OVCAR-4, with NCI-H522 and with SK-MEL-28 was > 100 µM (inactive) throughout.

Consider `O=C1N[C@@H]([C@H](CCCCCO)OC(=O)c2ccccc2)CO1`, for which the GI50 in the assay on SW-620, with NCI-H460, in the assay with CCRF-CEM, in the assay on SK-MEL-2, with OVCAR-5 and in the assay with UACC-62 was > 100 µM (inactive) throughout. Moreover, the GI50 in the assay with MOLT-4, with HOP-62, in the assay on NCI-H226, in the assay on SNB-75, in the assay on K562 and in the assay on U-251 was > 100 µM (inactive) each time. Further, the GI50 with SK-MEL-5, with EKVX, in the assay with SN12C, with RXF 393, in the assay on OVCAR-4 and in the assay on SK-MEL-28 was > 100 µM (inactive) in each case.

`C=C1CC(OC)(C(O)C(=O)N[C@H]2OCO[C@H]3C2O[C@H](C[C@@H](CO)OC)C(C)(C)C3OC)O[C@H](C)[C@@H]1C` (stereo partly drawn): the GI50 in the assay on SW-620 is < 0.00931 µM (active); in the assay on NCI-H460 it was < 0.00931 µM (active); in the assay with CCRF-CEM it was 0.0125 µM (active); with SK-MEL-2 it was 0.0931 µM (active); in the assay with OVCAR-5 it was < 0.00931 µM (active); with UACC-62, < 0.00931 µM (active). Further, the GI50 in the assay with MOLT-4 is 0.931 µM (active); with HOP-62, < 0.00931 µM (active); in the assay on NCI-H226, < 0.00931 µM (active); in the assay on SNB-75 it was < 0.00931 µM (active); in the assay with K562 it was < 0.00931 µM (active); with U-251 it was < 0.00931 µM (active). Moreover, the GI50 in the assay on SK-MEL-5, in the assay with SN12C, in the assay with RXF 393, in the assay with OVCAR-4 and with SK-MEL-28 was < 0.00931 µM (active) throughout.

In the case of `Cn1c(=O)nc2n(-c3ccc(Cl)cc3Cl)c3ccccc3nc-2c1=O`, the GI50 is 2.87 µM (inactive) in the assay with SK-MEL-2; 33.8 µM (inactive) with OVCAR-5; 2.04 µM (inactive) with UACC-62; 10.7 µM (inactive) with MOLT-4; 3.05 µM (inactive) with HCC 2998; 11.7 µM (inactive) in the assay on HOP-62. Besides, the GI50 is 3.92 µM (inactive) with K562; 5.06 µM (inactive) in the assay on U-251; 1.41 µM (inactive) with SK-MEL-5; 5.27 µM (inactive) in the assay with EKVX; 3.96 µM (inactive) in the assay with RXF 393; 3.51 µM (inactive) in the assay on OVCAR-4. The GI50 in the assay on SK-MEL-28 was 11.4 µM (inactive).
